This note sets out measurements from US20230241150A1, “Compositions and Uses Thereof” (Natur-Tech Pharmacal Co., Ltd, priority 2020, published 2023).

Marks after values point to notes of the source that are not given here.

In assay [1] the test system is PTZ-induced epileptic mice. Nature of the assay: PTZ-induced epilepsy in mice: seizure stage (Racine scale), convulsions, mortality. Type of assay: in vivo, ICR mice. The conditions noted are these: carbamazepine 80 mg/kg intragastric daily 7 days; PTZ 80 mg/kg i.p.; n=12. From the text:
As known to those skilled in the art, pentylenetetrazole (PTZ) is a powerful seizure-inducing agent, and its epileptic model is considered to be one of the ideal models for systemic tonic seizures. PTZ itself has no special neurotoxicity, so it is widely used in the study of epilepsy pathogenesis and the screening of anti-epileptic drugs. When PTZ induces epilepsy in mice, its seizures are characterized by clonic seizures in the initial stage, followed by systemic tonic seizures soon afterwards. PTZ is a central nervous system stimulant that acts on GABA-GABAA receptor system. It promotes the enhancement of the excitatory synaptic facilitation and reduces the release of GABA. This in turn reduces the inhibitory ability, increases the sensitivity to convulsions, and increases the excitability of the central nervous system, thereby inducing EP. According to its seizure characteristics, in this experiment, these two seizure forms were used as indicators and combined with the current Racine scale to analyze their epileptic behavior.
(§1) The mice in each group were given intragastric administration daily, for 7 consecutive days. 30 minutes after the last administration, except for the blank control group, the mice in the other groups were injected intraperitoneally with 80 mg/kg of PTZ to induce convulsions in the mice. Each mouse was placed in a separate cage for observation for 30 minutes, and behavioral changes such as stages of seizure, duration, latent period and mortality rate of the mice were recorded.
The Racine scale (see: https://en.wikipedia.org/wiki/Racine_stages) was used to determine the level of epilepsy in mice: • Stage 0: No response; • Stage I: Wet dog shakes, facial twitches, clonus, tremors (such as eye blinking, moustache movements, rhythmic chewing, etc.); • Stage II: Stage I plus rhythmic nodding; • Stage III: Stage II plus forelimb clonus, but no rearing; • Stage IV: Rearing and oblique bilateral falling, or rearing with forelimb clonus; and • Stage V: Imbalance, tipping, twitching of limbs, generalized clonus, generalized tonic seizures, falling, rolling, and loss of postural control.

The subject of assay [2] is brain of convulsive mice. Type of assay: in vivo, ICR mice. The conditions noted are these: carbamazepine 80 mg/kg intragastric daily 7 days; PTZ 80 mg/kg i.p.; n=12. How it is done:
as §1
After completing the behavioral observation determined by the above relevant indicators, experiments were conducted to study the effect of the composition on the contents of NO, Na-K-ATP, Asp, and 5-HT in the brain of convulsive mice. After the behavioral observation was over, the mice were immediately executed, and the brain tissues and the required organs were quickly taken out, weighed, and then the brain tissues were placed in liquid nitrogen and stored in a refrigerator at -80° C. Blood stains on the surface were washed off with pre-cooled saline before measurement. The tissues were then weighed and PBS was added in a volume ratio of 1:9 to fully homogenize the brain tissues. The homogenate was centrifuged at 3000 r/min for 20 minutes. The supernatant was collected as samples for subsequent ELISA test to detect the content of GABA, Glu, NO, Na^+-K^+-ATP, Asp, 5-HT, etc.

With `NC(=O)N1c2ccccc2C=Cc2ccccc21` [Carbamazepine], in assay [1], the Duration of convulsions stood at 165.3 ± 32.5 s, the “Latent period of convulsions” value is 365.2 ± 25.6 s, the Morality rates stood at 16.7% and the Number of convulsions was 8. In assay [1], the “number of seizures, Stage I” value is 0.9±0.4; the “number of seizures, Stage II” value came to 1.4±0.8; the “number of seizures, Stage III” value is on record as 1.5±0.8; the “number of seizures, Stage IV” value amounted to 2.1±1.8. Also, in assay [1], the “number of seizures, Stage V” value is on record as 6.3±2.1; the “seizure behavior: number of mice at Stage 0” value amounted to 1; the “seizure behavior: number of mice at Stage I” value was found to be 3; the “seizure behavior: number of mice at Stage II” value stood at 3. Moreover, in assay [1], the “seizure behavior: number of mice at Stage III” value is listed as 2, the “seizure behavior: number of mice at Stage IV” value was 2 and the “seizure behavior: number of mice at Stage V” value is 1*. In assay [2], the “5-HT content in the brain” value stood at 14.6 ± 2.6 ng/L, the “NO content in the brain” value worked out at 26.4 ± 2.5 µmol/L and the “Na-K-ATP content in the brain” value was determined as 192.1 ± 5.7 ng/L.
